For one test, the target named is T1, Liver carboxylesterase 1 (Homo sapiens, UniProt P23141).
T1 sequence (P23141 whole entry): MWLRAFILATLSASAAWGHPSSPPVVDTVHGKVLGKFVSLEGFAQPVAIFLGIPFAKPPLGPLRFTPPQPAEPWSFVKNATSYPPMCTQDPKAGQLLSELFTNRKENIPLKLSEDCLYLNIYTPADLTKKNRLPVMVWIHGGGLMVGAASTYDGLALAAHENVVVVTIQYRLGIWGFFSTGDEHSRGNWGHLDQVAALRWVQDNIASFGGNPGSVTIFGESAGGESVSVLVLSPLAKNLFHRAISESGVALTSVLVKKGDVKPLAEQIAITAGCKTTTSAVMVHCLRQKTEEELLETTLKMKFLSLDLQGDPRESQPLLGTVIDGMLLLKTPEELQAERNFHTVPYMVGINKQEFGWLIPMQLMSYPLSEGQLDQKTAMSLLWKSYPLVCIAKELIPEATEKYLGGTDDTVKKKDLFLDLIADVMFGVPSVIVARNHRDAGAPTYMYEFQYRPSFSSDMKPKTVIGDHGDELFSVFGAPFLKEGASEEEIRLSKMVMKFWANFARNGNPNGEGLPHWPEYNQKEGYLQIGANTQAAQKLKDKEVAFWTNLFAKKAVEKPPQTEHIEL
Nature of the test: Inhibition of TGH.

Test [1] has as its target T2, Neutral cholesterol ester hydrolase 1 (Homo sapiens, UniProt Q6PIU2).
T2 sequence (Q6PIU2 whole entry): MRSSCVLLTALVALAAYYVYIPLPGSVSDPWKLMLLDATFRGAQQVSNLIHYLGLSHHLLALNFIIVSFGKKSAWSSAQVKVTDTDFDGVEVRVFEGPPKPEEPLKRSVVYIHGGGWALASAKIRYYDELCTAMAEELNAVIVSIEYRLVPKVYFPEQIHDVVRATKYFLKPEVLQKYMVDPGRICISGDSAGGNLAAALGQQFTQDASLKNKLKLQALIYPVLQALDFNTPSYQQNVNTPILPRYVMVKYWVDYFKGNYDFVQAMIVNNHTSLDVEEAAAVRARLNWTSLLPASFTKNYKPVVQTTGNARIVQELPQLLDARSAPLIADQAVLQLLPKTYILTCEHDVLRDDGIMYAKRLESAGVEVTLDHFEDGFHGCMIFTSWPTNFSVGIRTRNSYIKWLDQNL
The test can be described thus: Inhibition of KIAA1363.

Test [2] is filed under the species Homo sapiens. Nature of the test: Selectivity for FAAH over KIAA1363.
The species entered for test [3] is Homo sapiens. Nature of the test: Selectivity for FAAH over TGH.
For test [4], the target named is Fatty-acid amide hydrolase 1 (Rattus norvegicus) (UniProt P97612). Nature of the test: Inhibition of rat recombinant FAAH expressed in Escherichia coli by [14C]oleamide breakdown.
The target of test [5] is T3, Fatty-acid amide hydrolase 1 (Homo sapiens, UniProt O00519).
T3 sequence (O00519 whole entry): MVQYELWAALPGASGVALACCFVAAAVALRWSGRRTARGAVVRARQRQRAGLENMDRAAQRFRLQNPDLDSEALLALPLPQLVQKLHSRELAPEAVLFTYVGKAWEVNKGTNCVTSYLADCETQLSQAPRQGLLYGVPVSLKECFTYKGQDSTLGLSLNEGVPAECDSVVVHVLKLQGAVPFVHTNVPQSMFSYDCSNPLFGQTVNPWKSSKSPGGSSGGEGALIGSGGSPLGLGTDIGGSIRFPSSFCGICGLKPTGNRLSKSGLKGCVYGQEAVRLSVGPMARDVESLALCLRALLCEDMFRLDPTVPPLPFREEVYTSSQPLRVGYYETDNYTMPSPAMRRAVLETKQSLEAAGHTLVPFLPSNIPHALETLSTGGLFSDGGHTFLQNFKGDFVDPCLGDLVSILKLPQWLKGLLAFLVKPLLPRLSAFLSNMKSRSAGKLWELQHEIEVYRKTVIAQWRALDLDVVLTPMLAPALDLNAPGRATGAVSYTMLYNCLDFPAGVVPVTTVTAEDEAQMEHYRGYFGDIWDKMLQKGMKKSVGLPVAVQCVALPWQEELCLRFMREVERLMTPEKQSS
The test can be described thus: Inhibition of human FAAH expressed in COS7 cells by [14C]oleamide breakdown. The class given is cell-based, COS-7.

A word on the IC50: it is the point on the concentration scale where inhibition reaches its midpoint. A word on the Ki: it is the dissociation constant of the complex between target and ligand, obtained from inhibition or displacement.

With `Nc1ccnc(-c2cnc(C(=O)CCCCCCc3ccccc3)o2)c1`, the values for the IC50 (at Liver carboxylesterase 1; in test [1]; in test [4]) were 34000 nM, greater than 100000 nM and 340 nM, respectively. Besides, the Ratio IC50 in the test listed under Homo sapiens [2] was greater than 300; in the test listed under Homo sapiens [3] it was 100. In test [4], the Ki came out at 25 nM.

With `O=C(CCCCCCc1ccccc1)c1ncco1`, the IC50 against Liver carboxylesterase 1 is 20 nM; in test [1] it was 19000 nM; in test [4] it was 2500 nM. Besides, the values for the Ratio IC50 in the test filed under Homo sapiens [2] and in the test listed under Homo sapiens [3] were 8 and 0.008, respectively.

Consider `NS(=O)(=O)c1cccc(-c2cnc(C(=O)CCCCCCc3ccccc3)o2)c1`, for which the IC50 against Liver carboxylesterase 1 is 200 nM; in test [1], greater than 100000 nM; in test [4], 400 nM. In addition, the values for the Ratio IC50 in the test listed under Homo sapiens [2] and in the test listed under Homo sapiens [3] were greater than 200 and 0.5, respectively. Besides, in test [4], the Ki stood at 2 nM.

As to `O=C(O)c1cccc(-c2cnc(C(=O)CCCCCCc3ccccc3)o2)c1`, the IC50 against Liver carboxylesterase 1 is greater than 100000 nM; in test [1], greater than 100000 nM; in test [4], 1400 nM. Further, the Ratio IC50 in the test filed under Homo sapiens [2] and in the test filed under Homo sapiens [3] was greater than 70 throughout. The Ki in test [4] worked out at 5 nM.

Turning to `NC(=O)c1cccc(-c2cnc(C(=O)CCCCCCc3ccccc3)o2)c1`, the IC50 is greater than 100000 nM on Liver carboxylesterase 1, greater than 100000 nM in test [1] and 2700 nM in test [4]. Further, the Ratio IC50 in the test filed under Homo sapiens [2] and in the test listed under Homo sapiens [3] was greater than 40 in each case. In test [4], the Ki came out at 6 nM.

As to `O=C(O)c1cccc(-c2cnc(C(=O)CCCCCCc3ccccc3)o2)n1`, the 50% inhibitory concentration (IC50) against Liver carboxylesterase 1 is greater than 100000 nM; in test [1] it was greater than 100000 nM; in test [4] it was 100 nM. In addition, the Ratio IC50 in the test filed under Homo sapiens [2] and in the test listed under Homo sapiens [3] was greater than 1000 throughout. Also, in test [4], the Ki worked out at 20 nM.

On to `O=C(CCCCCCc1ccccc1)c1ncc(-c2cc(C(F)(F)F)ccn2)o1`, for which the IC50 against Liver carboxylesterase 1 was 2000 nM; in test [1], greater than 100000 nM; in test [4], 1.5 nM. For the same compound, the Ratio IC50 in the test filed under Homo sapiens [2] is greater than 67000; in the test filed under Homo sapiens [3] it was 1300. In test [4], the Ki came to 3.5 nM.

Take `COc1cc(-c2cnc(C(=O)CCCCCCc3ccccc3)o2)nc(OC)n1`: the values for the IC50 (at Liver carboxylesterase 1; in test [1]; in test [4]) were 70 nM, greater than 100000 nM and 400 nM, respectively. Besides, the results for the Ratio IC50 in the test filed under Homo sapiens [2] and in the test filed under Homo sapiens [3] were greater than 250 and 0.2, respectively. For the same compound, the Ki in test [4] was found to be 5 nM.

Turning to `O=C(CCCCCCc1ccccc1)c1ncc(Br)o1`, the IC50 came to 100 nM against Liver carboxylesterase 1, 13000 nM in test [1] and 190 nM in test [4]. Also, the values for the Ratio IC50 in the test listed under Homo sapiens [2] and in the test filed under Homo sapiens [3] were 70 and 0.5, respectively.

In the case of `O=C(CCCCCCc1ccccc1)c1ncc(-c2cc([N+](=O)[O-])ccn2)o1`, the IC50 against Liver carboxylesterase 1 was 200 nM; in test [1] it was greater than 100000 nM; in test [4], 1.6 nM. The figures for the Ratio IC50 in the test listed under Homo sapiens [2] and in the test listed under Homo sapiens [3] were greater than 63000 and 125, respectively. Further, the Ki in test [4] was found to be 3.2 nM.

As for `COC(=O)c1ccnc(-c2cnc(C(=O)CCCCCCc3ccccc3)o2)c1`, the IC50 at Liver carboxylesterase 1 is 900 nM; in test [1], greater than 100000 nM; in test [4] it was 0.6 nM. The values for the Ratio IC50 in the test listed under Homo sapiens [2] and in the test listed under Homo sapiens [3] were greater than 170000 and 2000, respectively. For the same compound, in test [4], the Ki was 1.3 nM.

As to `N#Cc1ccnc(-c2cnc(C(=O)CCCCCCc3ccccc3)o2)c1`, the IC50 against Liver carboxylesterase 1 was 400 nM; in test [1], greater than 100000 nM; in test [4], 0.8 nM. The Ratio IC50 in the test filed under Homo sapiens [2] was greater than 125000; in the test filed under Homo sapiens [3], 500. Moreover, the Ki in test [4] turned out to be 1.1 nM.

With `O=C(CCCCCCc1ccccc1)c1ncc(C(=O)N2CCCCC2)o1`, the results for the IC50 (on Liver carboxylesterase 1; in test [1]; in test [4]) were 8000 nM, greater than 100000 nM and 450 nM, respectively. The Ratio IC50 in the test filed under Homo sapiens [2] is greater than 200; in the test listed under Homo sapiens [3], 20. In addition, in test [4], the Ki was determined as 8 nM.

Turning to `COc1ncc(-c2cnc(C(=O)CCCCCCc3ccccc3)o2)c(OC)n1`, the values for the IC50 (at Liver carboxylesterase 1; in test [1]; in test [4]) were 3000 nM, greater than 100000 nM and 9000 nM, respectively. Moreover, the Ratio IC50 is greater than 11 in the test filed under Homo sapiens [2] and 0.3 in the test listed under Homo sapiens [3]. Moreover, the inhibition constant Ki in test [4] came out at 26 nM.

In the case of `COc1ccnc(-c2cnc(C(=O)CCCCCCc3ccccc3)o2)c1`, the IC50 was 500 nM on Liver carboxylesterase 1, greater than 100000 nM in test [1] and 1.7 nM in test [4]. Further, the Ratio IC50 in the test filed under Homo sapiens [2] is 59000; in the test listed under Homo sapiens [3], 300. For the same compound, the Ki in test [4] was 0.8 nM.

Consider `O=C(CCCCCCc1ccccc1)c1ncc(-c2cc(F)ccn2)o1`, for which the IC50 at Liver carboxylesterase 1 was 600 nM; in test [1], greater than 100000 nM; in test [4] it was 2.5 nM. The Ratio IC50 in the test listed under Homo sapiens [2] is greater than 40000; in the test filed under Homo sapiens [3] it was 240. In test [4], the inhibition constant Ki came to 2 nM.

Consider `O=C(CCCCCCc1ccccc1)c1ncc(-c2c[nH]c(=O)[nH]c2=O)o1`, for which the values for the IC50 (at Liver carboxylesterase 1; in test [1]; in test [4]) were 30000 nM, greater than 100000 nM and 680 nM, respectively. Also, the Ratio IC50 in the test listed under Homo sapiens [2] was greater than 150; in the test filed under Homo sapiens [3], 40. For the same compound, the Ki in test [4] amounted to 350 nM.

On to `O=C(O)c1ccc(-c2cnc(C(=O)CCCCCCc3ccccc3)o2)nc1`, for which the IC50 against Liver carboxylesterase 1 was 3000 nM; in test [1], greater than 100000 nM; in test [4], 50 nM. The Ki in test [5] worked out at 8 nM; in test [4], 7 nM. Also, the Ratio IC50 in the test filed under Homo sapiens [2] was greater than 2000; in the test listed under Homo sapiens [3] it was 60.

Source of the values: ChEMBL document CHEMBL1142243, “Potent and selective alpha-ketoheterocycle-based inhibitors of the anandamide and oleamide catabolizing enzyme, fatty acid amide hydrolase” (J Med Chem, 2007).
